{P} = phosphate
Columns and labels:
SOD2 protein = experiment: Western blot analysis of antioxidant enzymes: SOD2 protein; type: cell-based, human
Experimental: (§1) Cell lysates were harvested at various intervals after T-oligo treatment in harvest buffer containing 0.25 M Tris HCl (pH 7.5), 0.375 M NaCl, 2.5% sodium deoxycholate, 1% Triton X-100, 25 mM MgCl2, 0.1 mg/ml aprotinin (Sigma, St. Louis, Mo.) and 1 mM phenylmethyl sulfonyl flouride (PMSF) (Sigma). Samples were sheared through a fine needle syringe, sonicated, centrifuged and the supernatant was isolated. Total cellular protein concentrations were determined spectrophotometrically with the Bio-Rad protein assay (Bio-Rad Laboratories, Inc, Hercules, Calif.). Equal amounts of total protein from each sample (35-65 μg) were separated by 10-15% polyacrylamide gel electrophoresis, and transferred to nitrocellulose membranes. After transfer, gels were stained with Coomassie Blue (Sigma) to ascertain evenness of loading.
(§2) Membranes were reacted with antibodies diluted in Tris-based buffer with nonfat milk powder as a blocking agent. […] Antibody binding was detected with electrochemical luminescence (ECL kit, NEN Life Science Products, Inc.) and exposure to XAR film (Eastman Kodak Co.).
(§3) Northern and western films as well as stained membranes and pictures of ethidium bromide-stained gels were digitally scanned and analyzed by densitometry. […]

SOD2 mRNA = experiment: Northern blot analysis of antioxidant enzyme mRNA: SOD2; type: cell-based, human; details: 100 μM pTT, 8-72 hours, three donors
Experimental: Cell culture followed previously published methods.^92 Primary human newborn dermal fibroblasts were cultured from neonatal circumcised foreskin specimens. The skin samples were treated overnight in a 0.25% trypsin solution at 4° C. to separate the epidermis from the dermis. The separated dermis was then cut into pieces and plated onto etched plastic tissue culture dishes. Primary culture medium consisted of DMEM supplemented with 10% bovine CS, 50 U/ml penicillin and 50 μg/ml streptomycin sulfate. […] Secondary culture medium consisted of DMEM supplemented with 10% CS.
Purified 5′-phosphorylated thymidine dinucleotides (pTT) (Midland Certified Reagents, Inc., Texas) purified by gel filtration and analyzed by mass spectroscopy, were obtained in lyophilized form. […] The stock solution was syringe filter-sterilized through a 0.2 μm pore filter and spectrophotometrically analyzed (absorbance at 260 and 280 nm) to determine the concentration, and frozen in aliquots at −20° C. […]
Cells were harvested in Trizol (Gibco BRL, Gaithersburg, Md.) and stored at −70° C. […] RNA solutions were measured by spectrophotometer readings at 260 nm and 280 nm to determine concentration and purity. […]
as §3

total p53 protein = details: 40 μM, published reports; cited from earlier work
GPX protein = experiment: Western blot analysis of antioxidant enzymes: GPX protein; type: cell-based, human; details: 40 μM, within several hours, up to 168 hours
Experimental: as §1, with “After transfer, gels were stained with Coomassie Blue (Sigma) to ascertain evenness of loading.” left out
as §2
The levels of superoxide dismutase 1 (SOD1), superoxide dismutase 2 (SOD2), catalase (Cat) and glutathione peroxidase (GPX) were determined in newborn fibroblasts at different time points after treatment with 40 μM of T-oligo in comparison with cells treated either with 40 μM of control complementary oligo pCTAACCCTAAC (SEQ ID NO: 22) or diluent. […]

Substance | SOD2 protein maximal relative induction compared to diluent (SOD2 protein; 100 μM pTT, at 24 hours, three donors, mean±SEM) | SOD2 mRNA level compared to diluent (SOD2 mRNA) | time to p53 induction (total p53 protein) | SOD2 protein level (SOD2 protein; 40 μM, within several hours, up to 168 hours) | GPX protein level (GPX protein)
5′-phosphorylated thymidine dinucleotides [pTT] | 31% (±20%) | no difference between pTT- and diluent-treated cells |  |  | 
pGTTAGGGTTAG (5' {P}, sugars by position and backbone not given here) [TO] |  |  | ≤ 8 h | induced | induced
